The term Ki denotes a dissociation constant, usually derived from enzyme kinetics or from competition with a known ligand.

The first experiment deals with T1, HIV protease (Human immunodeficiency virus type 1 group M subtype B, UniProt P04585).
T1 construct: A third viral enzyme known as protease then cleaves the polyproteins
As to the kind of experiment: Enzymatic Assay for Determining the Inhibition Constant (Ki) of Synthetic Compounds Targeting the HIV Protease (fluorometric FRET assay). The experiment is classed as biochemical.
Settings: not given
The text has this:
Enzymatic Assay for Determining the Inhibition Constant (Ki) of Synthetic Compounds Targeting the HIV Protease
This is a fluorometric assay based on the cleavage by protease of a substrate carrying a donor group (EDANS) and an acceptor group (DABCYL) on each side of the cleavage site, interacting together through fluorescence resonance energy transfer (FRET) as described by Matayoshi et al. (Science 247:[…], 1990).
After calculation of Vo and Vi, the inhibition constant (Ki) of the compound is determined using the equation of Henderson: [formula]
where Vo=the enzyme's initial velocity
Vi=the enzyme velocity in the presence of the inhibitory compound,
[I]=inhlibitor concentration, [S]=substrate concentration,
Km=Michaelis-Menten constant and Kiapp=apparent Ki
Graphs are traced and the Ki determined using GraphPad Prism software v. 3.0.
In turn, `Cc1ccc(S(=O)(=O)N(CC(C)C)[C@@H](CCCCNC(=O)[C@H](Cc2c[nH]c3ccccc23)NS(=O)(=O)c2ccccc2)C(N)=O)cc1` [Example 189, Nα-Isobutyl-Nα-(4-methylbenzenesulfonyl)-Nε-(N′α-benzenesulfonyl-L-tryptophanyl)-L-lysine Amide] returned an inhibitory constant (Ki) of 1.9 nM. Same read-out and setting: the value for `Cc1ccc(S(=O)(=O)N(CC(=O)NCCCC[C@@H](CO)N(CC(C)C)S(=O)(=O)c2ccc(C)cc2)Cc2ccccc2)cc1` [Example 159, (2S) 2-N-Isobutyl-2-N-(4-methylbenzenesulfonyl)-6-N-[N′α-benzyl-N′α-(4-methylbenzenesulfonyl)glycyl]-2,6-diaminohexanol] was 101 nM; that for `Cc1ccc(S(=O)(=O)N(CC(C)C)[C@@H](CCCCNC(=O)CNCCN2CCOCC2)C(=O)O)cc1` [Example 111, Nα-Isobutyl-Nα-(4-methylbenzenesulfonyl)-Nε-[N′α-(4-niorpholinyl-N-ethyl)glycyl]-L-lysine] was over 300 nM; that for `Cc1ccc(S(=O)(=O)N(CC(C)C)[C@H](CO)CCCCNC(=O)[C@H](Cc2cccc(F)c2)NC(=O)OC(C)(C)C)cc1` [Example 139, (2S,2′S) 2-N-Isobutyl-2-N-(4-methylbenzenesulfonyl)-6-N-(N′α-tert-butoxycarbonyl-S-3-fluorophenylalanyl)-2,6-diaminohexanol] was 4.1 nM.

`Cc1ccc(S(=O)(=O)N(CC(C)C)[C@H](CO)CCCCNC(=O)[C@H](Cc2ccccc2)NC(=O)c2ccccc2)cc1` [Example 95, (2S,2′S) 2-N-Isobutyl-2-N-(4-methylbenzenesulfonyl)-6-N-(N′α-benzoyl-S-phenylalanyl)-2,6-diaminohexanol] returned an inhibitory constant (Ki) of 54 nM. Regarding `COc1ccc(CC(=O)N[C@@H](Cc2ccccc2)C(=O)NCCCC[C@@H](CO)N(CC(C)C)S(=O)(=O)c2ccc(C)cc2)cc1` [Example 162, (2S,2′S) 2-N-Isobutyl-2-N-(4-methylbenzenesulfonyl)-6-N-[N′α-(4-methoxyphenylacetyl)-S-phenylalanyl]-2,6-diaminohexanol], the inhibition constant (Ki) was 1.2 nM. Same read-out and setting: the value for `COc1ccc(CC(=O)N[C@@H](Cc2ccccc2)C(=O)NCCCC[C@@H](C(=O)O)N(CC(C)C)S(=O)(=O)c2ccc(C)cc2)cc1` [Example 132, Nα-Isobutyl-Nα-(4-methylbenzenesulfonyl)-Nε-[N′α-(4-methoxyphenylacetyl)-L-phenylalanyl]-L-lysine] was 0.257 nM; that for `COc1cccc(CNCC(=O)NCCCC[C@@H](C(=O)O)N(CC(C)C)S(=O)(=O)c2ccc(C)cc2)c1OC` [Example 107, Nα-Isobutyl-Nα-(4-methylbenzenesulfonyl)-Nε-[N′α-(2,3-dimethoxybenzyl)glycyl]-L-lysine] was 52 nM; that for `COc1ccc(CC(=O)N[C@@H](Cc2ccccc2)C(=O)NCCCC[C@@H](C(=O)O)N(CC(C)C)S(=O)(=O)c2ccc(N)cc2)cc1` [Example 163, Nα-(4-Aminobenzenesulfonyl)-Nα-isobutyl-Nε-[N′α-(4-methoxyphenylacetyl)-L-phenylalanyl]-L-lysine] was 0.27 nM. `Cc1ccc(S(=O)(=O)N[C@@H](CO)C(=O)NCCCC[C@@H](C(=O)O)N(CC(C)C)S(=O)(=O)c2ccc(C)cc2)cc1` [Example 32, Nα-Isobutyl-Nα-(4-methylbenzenesulfonyl)-Nε-[N′α-(4-methylbenzenesulfonyl)-L-seryl]-L-lysine] gave a Ki of 93 nM. Still for that read-out and setting: for `COC(=O)N[C@@H](Cc1c[nH]c2ccccc12)C(=O)NCCCC[C@@H](CO)N(CC(C)C)S(=O)(=O)c1ccc(C)cc1` [Example 190, (2S,2′S) 2-N-Isobutyl-2-N-(4-methylbenzenesulfonyl)-6-N-(N′α-methoxycarbonyl-S-tryptophanyl)-2,6-diaminohexanol] the value was 2.2 nM; for `Cc1ccc(S(=O)(=O)N(CC(C)C)[C@@H](CCCCNC(=O)[C@H](CC2CCCCC2)NC(=O)OCC2c3ccccc3-c3ccccc32)C(=O)O)cc1` [Example 37, Nα-Isobutyl-Nα-(4-methylbenzenesulfonyl)-Nε-[N′α-(9-fluorenylmethoxycarbonyl)-L-cyclohexylalanyl]-L-lysine], 28 nM. Still for that read-out and setting: for `Cc1ccc(S(=O)(=O)N(CC(C)C)[C@H](CO)CCCCNC(=O)[C@H](Cc2c[nH]c3ccccc23)NC(=O)C(C)(C)C)cc1` [Example 117, (2S,2′S) 2-N-Isobutyl-2-N-(4-methylbenzenesulfonyl)-6-N-(N′α-pivaloyl-S-tryptophanyl)-2,6-diaminohexanol] the value was 0.428 nM; for `Cc1ccc(S(=O)(=O)N(CC(C)C)C(CCCCNC(=O)C(Cc2ccccc2)NC(=O)OC2CCOC2)C(=O)O)cc1` [Example 80, Nα-Isobutyl-Nα-(4-methylbenzenesulfonyl)-Nε-[N′α-(carbotetrahydro-3-furanyloxy)-L-phenylalanyl]-L-lysine], 1.4 nM; for `Cc1ccc(S(=O)(=O)N(CC(C)C)[C@H](CO)CCCCNC(=O)[C@H](CC#N)NS(=O)(=O)c2ccccc2)cc1` [Example 188, (2S,2′S) 2-N-Isobutyl-2-N-(4-methylbenzenesulfonyl)-6-N-(N′α-benzenesulfonyl-S-cyanoalanyl)-2,6-diaminohexanol], 79 nM. Same read-out and setting: the value for `CN[C@@H](Cc1ccccc1)C(=O)NCCCC[C@@H](C(=O)O)N(CC(C)C)S(=O)(=O)c1ccc(C)cc1` [Example 88, Nα-Isobutyl-Nα-(4-methylbenzenesulfonyl)-Nε-(N′α-methyl-L-phenylalanyl)-L-lysine] was 2.1 nM; that for `Cc1ccc(S(=O)(=O)N(CC(C)C)[C@@H](CCCCNC(=O)[C@H](CC(C)C)NS(=O)(=O)c2ccc([N+](=O)[O-])cc2)C(=O)O)cc1` [Example 16, Nα-Isobutyl-Nα-(4-methylbenzenesulfonyl)-Nε-[N′α-(4-nitrobenzenesulfonyl)-L-leucyl]-L-lysine] was 34 nM; that for `Cc1ccc(S(=O)(=O)N(CC(C)C)[C@@H](CCCCNC(=O)[C@H](CC(C)C)NS(=O)(=O)c2ccccc2)C(=O)O)cc1` [Example 22, Nα-Isobutyl-Nα-(4-methylbenzenesulfonyl)-Nε-(N′α-benzenesulfonyl-L-leucyl]-L-lysine] was 29 nM. As for `Cc1ccc(S(=O)(=O)N(CC(C)C)[C@@H](CCCCNC(=O)[C@H](Cc2ccccc2)NS(=O)(=O)c2ccc(Cl)cc2)C(=O)O)cc1` [Example 9, Nα-Isobutyl-Nα-(4-methylbenzenesulfonyl)-Nε-[N′α-(4-chlorobenzenesulfonyl)-L-phenylalanyl]-L-lysine], the affinity, expressed as Ki, was 6.8 nM. `Cc1ccc(S(=O)(=O)N(CC(C)C)[C@@H](CCCCNC(=O)[C@@H](NC(=O)OC(C)(C)C)[C@@H](C)OCc2ccccc2)C(=O)O)cc1` [Example 84, Nα-Isobutyl-Nα-(4-methylbenzenesulfonyl)-Nε-(N′α-tert-butoxyearbonyl-O-benzyl-L-threonyl)-L-lysine] registered an inhibitory constant (Ki) of 163 nM.

The same experiment, now with this note: Table 1, compounds of formula I; read-out: Ki (anti-protease activity).
Consider `Cc1ccc(S(=O)(=O)N[C@@H](Cc2c[nH]c3ccccc23)C(=O)NCCCC[C@@H](C=O)N(CC(C)C)S(=O)(=O)c2ccc(C)cc2)cc1` [Example 116, (2S,2′S) 2-N-Isobutyl-2-N-(4-methylbenzenesulfonyl)-6-N-[N′α-(4-methylbenzenesulfonyl)-S-tryptophanyl]-2,6-diaminohexanal], for which the Ki is over 300 nM.
